This note sets out measurements from EP3079693B1 (priority 2013, dated 2015).

The target in data set [1] is influenza A RNA-dependent RNA polymerase (Influenza A virus, UniProt P03428+P03431+P03433). Briefly: cell-based.
For data set [2], the system named is primary renal proximal tubule epithelial cells (or RPTEC).
Another data set relates to influenza B. Description: Inhibition of influenza B (method not described).
Data set [3] concerns influenza A/Puerto Rico/8/34. Description: In vivo survival study after live infection. Also noted: species or system Balb/C mice. The conditions noted are these: 3 doses, 2xLD50 intranasal challenge, survival = 70% or more of starting weight. On the procedure: In Vivo Survival Studies: Groups of 5 Balb/C mice ([…]) were weighed prior to the start of study and injected intravenously at the base of the tail with formulations containing A0435 at doses of 3.17, 1, or 0 mg/kg in phosphate buffered saline containing 3% w/v mouse serum albumin. Four hours later, these mice were challenged intranasally with 2xLD50 of influenza A/Puerto Rico/8/34 under anesthesia. Identical doses of A0435 were administered 24 and 48 hours after the initial dose administration and animal weights were monitored daily. Surviving animals were defined as those who maintained 70% or more of their starting weight.

For data set [4], the system named is influenza A/Puerto Rico/8/34 (H1N1) virus. The class given is cell-based.
A further data set deals with influenza A. The class given is cell-based.
Data set [5] relates to constitutive gene expression. Description: Counter screen: separate reporter system with cell death-activated reporter construct (constitutive gene expression). To be noted: counter-screen assay, dose titration.
The subject of data set [6] is liver-derived HepG2 cells.
Data set [7] has as its system H3N2 serotype A/Aichi/2/68. It counts as cell-based, influenza A.
For data set [8], the system named is influenza A/WS/1933 (H1N1). It counts as cell-based.

Bounds are passed on as bounds.

Consider `CCc1c(C)nc2cc(-c3ccc(OC)c(OC)c3)nn2c1NCCc1ccccn1` [A0435, 2-(3,4-dimethoxyphenyl)-6-ethyl-5-methyl-N-[2(pyridin-2-yl)ethyl]pyrazolo[1,5-a]pyrimidin-7-amine], for which the half-maximal inhibitory concentration (IC50) (as a rule, the midpoint of a concentration-inhibition curve) in data set [1] was approximately 3 µM. The “tolerability in cellular model of toxicity” value in [2] and in data set [6] was “well-tolerated” in each case. Besides, in the data set on influenza B, the “inhibition of influenza B” value was “inhibitable”. Besides, the “animals survived infection at day 7 post-infection” value is given as 2/5 in [3] (1 mg/kg intravenously) and 3/5 in data set [3] (3.17 mg/kg intravenously). Besides, the “concentrations with significant antiviral activity” value in [4] was more than 4 µM. Besides, the “cytopathic effects characteristic of influenza A infection” value in the data set on influenza A is recorded as “little to no signs of the cytopathic effects”. For the same molecule, the “inhibitory impact on the level of constitutive gene expression” value in data set [5] was “no visible inhibitory impact”. In addition, the inhibition of virus result in data set [7] and in [8] was “significantly inhibited” in each case.
